Measured values as given in US20170368089A1, “COMPOSITION FOR PREVENTING OR TREATING COLITIS” (UNIVERSITY-INDUSTRY COOPERATION GROUP OF KYUNG HEE …, priority 2012, published 2017).

Experiments:
TNF-alpha = TNF-alpha expression in colon tissue (ELISA), TNBS colitis, first experiment; format: in vivo, ICR male mice; settings: Table 4 (group 1), TNBS-treated mice, 10 mg/kg orally, 3 days
Experimental: Among the experimental groups, one group was set as a normal group, and for the experimental animals in other groups, colitis was induced with 2,4,6-trinitrobenzenesulfonic acid (TNBS). In detail, after lightly anesthetizing the experimental animals with ether, 0.1 ml of the solution prepared by mixing […] of 2,4,6-Trinitrobenzene sulfonic acid (NBS) solution with 50% ethanol was injected into the colon through the anus using a syringe having 1 ml volume and oval point, respectively; and then, the syringe was vertically picked up, and then, maintained for 30 seconds to induce the inflammation. Meanwhile, 0.1 ml of normal saline solution was orally administered to the normal group. Since then, from the next day, the sample dissolved in normal saline solution was orally administered in the volume that was decided in advance one time a day for 3 days. At the next day after completing the sample administration, the experimental animals were suffocated to death with carbon dioxide, the colon from appendix to the region just before the anus was removed from the colon region.
250 μl of RIPA butter including protease inhibitor cocktail was added to 100 mg of the colon tissue of experimental animal, and then, the colon tissue was homogenized. Since then, the homogenized colon tissue was centrifuged under the conditions of 4° C. and 13000 rpm for 15 minutes to obtain supernatant. While the supernatant was stored at −80° C., the expression amounts of IL-1 beta, IL-6, and TNF-alpha were measured using a 96-well ELISA plate kits (Pierce Biotechology, Inc., Rockford, Ill., USA).

[1] = tested on: model animal with acute colitis induced by TNBS; assay: Acute colitis induced by TNBS in mice, weight change and colon appearance (macroscopic score, colon length), third experiment; format: in vivo, male mice (C57BL/6); settings: Table 12, TNBS-treated mice, 3 days
Experimental: All the mice were bred under the controlled environmental conditions of 50 ±10% of humidity and 20 to 22° C. of temperature, and the lighting was repeatedly on for 12 hours and off for 12 hours. A feed for a standard experiment (Samyang, Korea) was used as a feed, and water was freely taken. For all the experiments, one group was 6 mice. […] Meanwhile, 0.1 ml of normal saline solution was orally administered to the normal group. Since then, from the next day, the sample dissolved in normal saline solution was orally administered in the volume that was decided in advance one time a day for 3 days. At the next day after completing the sample administration, the experimental animals were suffocated to death with carbon dioxide, and the colon from appendix to the region just before the anus was removed from the colon region. At this time, as a medicine sample, the experiments using the butanol-soluble fraction of the Anemarrhena asphodeloides Bunge extract, Mangiferin, and a combined extract were separately performed at a distance of time, respectively, and the effects of the medicine samples on preventing or treating colitis were reasonably analyzed based on the group supplied with normal saline solution instead of a specific medicine in the model animals with acute colitis induced by TNBS for each of the experiments. The sample administration to the model animals with colitis induced by TNBS was stopped, and at the next day, the weights of the experimental animals were measured, and then, the measured weights were compared with the initial weights to calculate the change amounts of weights. The scores about the removed colons were estimated by observing the appearances and the lengths of the colons according to the following criteria (Hollenbach, and the like, the criteria about the level of colon in 2005) as listed in Table 11. At this time, as a positive control group, the group administered with Mesalazine (Sigma) was used. In addition, some of the content in the colon was collected in order to analyze the rumen microorganisms, and then, was stored in a freezer of −80° C. […]

## Nc1ccc(O)c(C(=O)O)c1 [mesalazine, Mesalazine]
TNF-alpha
  TNF-alpha conc.: 26.1 ± 8.8 pg/mg
[1]; 10 mg/kg orally
  Colon length (Percentage to group supplied with normal saline solution after treating TNBS): 155%
  Macroscopic score (Percentage to group supplied with normal saline solution after treating TNBS): 61.1%
[1]; one time dosage amount 10 mg/kg orally
  Body weight (Percentage to group supplied with normal saline solution after treating TNBS): 113.5%
